Measured values taken from patent publication US6514538B1, “External preparations for skin whitening” (Shiseido Company, Ltd., priority 1999, dated 2003).

Tested on: skin of an inner lateral part of the upper arm of testees exposed to summer sunlight
Experiment: Whitening effect testing (lotion on sun-exposed skin of testees)
Format: in vivo, human
Conditions: blend ratio 1.0 wt %, applied twice a day for 4 weeks
Experimental: 66 testees were exposed to summer sunlight for 4 hours (2 hours a day for 2 days) and the skin of an inner lateral part of their upper arm was used as the subject of the test. […] The panel was divided into 11 groups with 6 persons in each group. Testing was conducted using lotion with the following formulas. [table] The water phase and the alcohol phase were prepared separately and then solubilized. The hypochromic effect after the application was evaluated based on the criteria below. ⊚: Very effective or effective on 80% or more of the testees ◯: Very effective or effective on 50% to less than 80% of the testees Δ: Very effective or effective on 30% to less than 50% testees ×: Very effective or effective on less than 30% of the testees Samples were prepared with the blend compositions described in the aforementioned test method, and the drugs listed in Table 2 were used to compare the whitening effect.

Question: With `Oc1ccc(O)cc1` [Hydroquinone] as the compound, how does the “Effect (hypochromic effect after the application)” value read?
Answer: The value was “Δ (Very effective or effective on 30% to less than 50% testees)”.
